# Patent US12458630B2, “Combination therapy for cancer” (The Regents of the University of California, priority 2020, dated 2025)
# Entries after “also recorded” stand apart in the source; their conditions may differ.
# Experiments:
# [1] = system: 1444 primary human PDAC cells; test: Cell viability assay (CCK-8); type: cell-based
# Method: (§1) In some embodiments, cells were plated in 96-well plates coated with or without ECM at a density of 3000 cells (MIA PaCa-2, 1444, 1305, COLO 357/FG) or 1500 cells (KC6141) per well and incubated overnight prior to treatment. EIPA (10.5 μM), IPI549 (600 nM), MBQ-167 (500 nM), MRT68921 (600 nM) or erlotinib (2 μM, Sigma), ML385 (10 μM, Sigma), HCQ (10 μM or 80 μM) or their combinations were added to the wells for 24, 72 or 96 hrs. Next, 10 μL of CCK-8 was added to each well. The optical density was read at 450 nm using a microplate reader (FilterMax F5, Molecular Devices, USA) at day 0, 1, 2, 3, and 4. For glutamine-deprivation assays, cells in 96-well plates were rinsed briefly in PBS and incubated in the 0.2 mM glutamine. Glutamine-free DMEM medium was supplemented with 0.2 mM glutamine in the presence of 10% dialyzed FBS and 25 mM HEPES. For glucose-deprivation assays, cells in 96-well plates were rinsed briefly in PBS and incubated in the 0.5 mM glucose. Glucose-free DMEM medium was supplemented with 0.5 mM glucose in the presence of 10% dialyzed FBS and 25 mM HEPES. For some conditions, the medium was supplemented with a final concentration of 2% BSA (Fraction V, fatty-acid-, nuclease and protease-free, Calbiochem). For all experiments, media were replaced every 24 hrs. Viable cell counts were obtained using CCK-8 assay described as above.
# [2] = system: 1305 primary human PDAC cells; test: Cell viability assay (CCK-8); type: cell-based; conditions: IKKα^low 1305 cells, 3 days
# Method: as §1
# MIA PaCa-2 cells = test: Cell viability assay (CCK-8); type: cell-based, human; conditions: for cell viability in NHE1-silenced cells: NHE1 KD MIA PaCa-2 cells
# Method: Cell viability assay. Cell viability was determined with Cell Counting Kit-8 assay (CCK-8 assay kit, Glpbio). Cells were plated in 96-well plates at a density of 3000 cells (MIA PaCa-2) or 1500 cells (KC6141) per well and incubated overnight prior to treatment. EIPA (10 μM), MRT68921 (600 nM) or erlotinib (2 μM, Sigma) were added to the wells for 72 and 96 hrs. Next, 10 μL of CCK-8 was added to each well. The optical density was read at 450 nm using a microplate reader (FilterMax F5, Molecular Devices, USA) at day 0, 1, 2, 3, and 4. For glutamine-deprivation assays, cells in 96-well plates were rinsed briefly in PBS and incubated in the 0.2 mM glutamine. Glutamine-free DMEM medium was supplemented with 0.2 mM glutamine in the presence of 10% dialysed FBS and 25 mM HEPES. For some conditions, the medium was supplemented with a final concentration of 2% BSA (Fraction V, fatty-acid-, nuclease and protease-free, Calbiochem). For all experiments, media were replaced every 24 hrs. Viable cell counts were obtained using CCK-8 assay described as above.
# as §1
# [3] = system: parental and IKKα KO MIA PaCa-2 tumors; test: Heterotopic s.c. xenografts in nude mice; type: in vivo, mouse
# Method: (§2) To evaluate the effects of MP on tumor growth in the autochthonous model, Kras^G12D;Ikkα^Δpan mice, at 4 weeks of age, were treated with vehicle or 10 mg/kg EIPA (Sigma) by intraperitoneal injection every other day for 1 month. After that, surgically removed pancreata were weighed and used for further analysis. To evaluate the effects of MP on heterotopic xenografts, female homozygous BALB/c Nu/Nu nude mice were injected subcutaneously (s.c.) in both flanks at 7 weeks of age with 10^6 parental and IKKα KO MIA PaCa-2 cells mixed at a 1:1 dilution with BD Matrigel (BD Biosciences) in a total volume of 100 μl. Mice were treated with EIPA (7.5 mg/kg) for 15 days when tumors attained an average volume of 50-100 mm^3. As a control, animals treated with vehicle (DMSO in PBS) were used. Volumes (1/2×(width^2×length)) of s.c. tumors were calculated on the basis of measurements using digital calipers after 15 days of treatment. […] Tumor volumes were calculated as above.
# (§3) In some embodiments, to evaluate the effects of MP on tumor growth or survival in the autochthonous model, Kras^G12D;Ikkα^ΔPEC mice, at 4 weeks of age, were treated with vehicle or 10 mg/kg EIPA (Sigma) by i.p. injection every other day for 1 month. […] Volumes (1/2×(width^2×length)) of s.c. tumors were calculated on the basis of measurements using digital calipers after 15 days of treatment. […] Tumor volumes were calculated as above.
# KC6141 tumors = test: s.c. tumors in C57BL/6 mice; type: in vivo, mouse; conditions: EIPA 7.5 mg/kg, MRT68921 10 mg/kg, 21 days (3 weeks)
# Method: as §2, §3
# KC6141 cells = test: BrdU incorporation (immunofluorescence); type: cell-based, mouse; conditions: 0.5 mM glucose, 24 hrs; for BrdU incorporation (cell proliferation): KC6141 cells on ECM
Compound,sensitivity of IKKα^Δ and ATG7^Δ cells to EIPA (CCK-8) ([1]; IKKα^Δ / ATG7^Δ 1444 cells (functional TP53)),"cell viability (total viable cells relative to day 0) ([1]; WT, IKKα^Δ and ATG7^Δ 1444 cells, complete medium, EIPA 10.5 μM, days 0-4)",sensitivity to single agent (cell viability) [2],"sensitivity to single agent (cell viability) (MIA PaCa-2 cells; ATG7^Δ or IKKα-deficient MIA PaCa-2 cells, 3 days)","sensitivity of IKKα- or ATG7-deficient cells to EIPA (CCK-8) (MIA PaCa-2 cells; IKKα^Δ / ATG7^Δ vs WT MIA PaCa-2 cells (TP53 mutated), complete medium)",cell viability in NHE1-silenced cells (MIA PaCa-2 cells; 3 days),"proliferation restored by albumin supplementation (MIA PaCa-2 cells; WT and IKKα KO MIA PaCa-2 cells, 0.2 mM glutamine with albumin, 3 days)","cell viability (total viable cells relative to day 0) (MIA PaCa-2 cells; WT and IKKα^Δ MIA PaCa-2 cells, complete medium, EIPA 10.5 μM)","enhanced proliferation caused by loss of IKKα or ATG7 (MIA PaCa-2 cells; WT, IKKα KO, ATG7 KO MIA PaCa-2 cells, complete medium, EIPA 10 μM, days 0-4)","growth of IKKα-deficient tumors / their EIPA sensitivity vs parental ([3]; IKKα KO (IKKα^Δ) MIA PaCa-2 tumors, EIPA 7.5 mg/kg for 15 days)","tumor size ([3]; parental and IKKα KO MIA PaCa-2 tumors, EIPA 7.5 mg/kg for 15 days vs vehicle)",tumor growth (KC6141 tumors),BrdU incorporation (cell proliferation) (KC6141 cells),BrdU incorporation in NRF2 ablated cells (KC6141 cells; Nrf2 KD KC6141 cells on ECM),BrdU incorporation (cell proliferation) (KC6141 cells; listed as MRT)
"CCN(c1nc(N)c(C(=O)N=C(N)N)nc1Cl)C(C)C [EIPA, 5-(N-ethyl-N-isopropyl) amiloride]",highly sensitive,suppression of cell viability,very sensitive,very sensitive,much more sensitive; also recorded: highly sensitive,EIPA-insensitive,completely abrogated,suppression of cell viability,abrogated,strongly inhibited; also recorded: more EIPA sensitive,reduced tumor size in both groups; also recorded: significantly suppressed,small effect,reduced; also recorded: suppressed cell proliferation in all conditions,ineffective,
CN1CCc2cc(Nc3ncc(C4CC4)c(NCCCNC(=O)C4CCC4)n3)ccc2C1 [MRT68921],,,,,,severely compromised cell viability,,,,,,small effect,further elevated,,"enhanced cell proliferation in WT, but not in Nrf2 KD KC6141"
